Structures are written as SMILES.

Format in all cases: cell-based
In one assay the test system is RWPE-1 cells. Put plainly: CCK-8 in vitro cytotoxicity assay, RWPE-1 normal prostate epithelial cells. The settings on record: human prostate epithelial cell line RWPE-1 (normal), CCK-8, 24 h exposure, mean ± SD of three experiments. On the procedure: (§1) The synthesized target compounds 5 to 29 were evaluated for their in vitro cytotoxic activities against the three human prostate cancer cell lines (PC-3, LNCaP, and DU145), and compared with their effects on human prostate epithelial cell line RWPE-1 by CCK-8 assay.
(§2) PC-3 and RWPE-1 cells were cultured in Dulbecco’s modification Eagle’s medium (DMEM, Invitrogen, Carlsbad, CA, USA) supplemented with 10% fetal bovine serum (FBS, Hyclone, Logan, UT, USA), 100 U/mL penicillin and 0.1 mg/mL streptomycin (Invitrogen). DU145 cells were cultured in RPMI1640 media supplemented with 10% fetal bovine serum (FBS, Hyclone), 100 U/mL penicillin and 0.1 mg/mL streptomycin (Invitrogen). LNCaP cells were cultured in F12 media supplemented with 10% fetal bovine serum (FBS, Hyclone), 100 U/mL penicillin and 0.1 mg/mL streptomycin (Invitrogen). The cells were incubated at 37 °C in a humidified atmosphere with 5% CO2.
(§3) Cell proliferation was measured with the Cell Counting Kit-8 (CCK-8) assay kit (Dojindo Corp., Kumamoto, Japan). Cells were harvested during logarithmic growth phase and seeded in 96-well plates at a density of 1 × 10^5 cells/mL, and cultured at 37 °C in a humidified incubator (5% CO2) for 24 h, followed by exposure to various concentrations of compounds tested for 24 h. Subsequently 10 μL of CCK-8 (Dojindo) was added to each well, the cells were then incubated for an additional 1 h at 37 °C to convert WST-8 into formazan. Cell growth inhibition was determined by measuring the absorbance (Abs) at λ = 450 nm using amicroplate reader. Three independent experiments were performed. Cell growth inhibition was calculated according to the following equation: Growth inhibition = (1 − OD of treated cells/OD of control cells) × 100%
(§4) The half maximal inhibitory concentrations (IC50) were obtained from linear regression analysis of the concentration-response curves plotted for each tested compound.

For the next assay, the system named is DU145 cells. Put plainly: CCK-8 in vitro cytotoxicity assay, DU145. The settings on record: DU-145; human prostate cancer cell line DU145, CCK-8, 24 h exposure, mean ± SD of three experiments. As to the method: as §1, §2, §3, §4
For the next assay, the system named is LNCaP cells. As to the kind of experiment: CCK-8 in vitro cytotoxicity assay, LNCaP. The settings on record: human prostate cancer cell line LNCaP, CCK-8, 24 h exposure, mean ± SD of three experiments. As to the method:
as §1, §2, §3, §4

Another assay relates to PC-3 cells. Put plainly: CCK-8 in vitro cytotoxicity assay, PC-3. The settings on record: human prostate cancer cell line PC-3, CCK-8, 24 h exposure, mean ± SD of three experiments. As to the method: as §1, §2, §3, §4

What is called IC50 is the point on the concentration scale where inhibition reaches its midpoint. Lower therefore signals higher potency. As for `c1ccc(N2CCN(CCc3ccc(COc4ccc5c(c4)OCO5)cc3)CC2)cc1` [Compound 5, 1-(2-(4-((Benzo[d][1,3]dioxol-5-yloxy)methyl)phenyl)ethyl)-4-phenylpiperazine], the concentration for half-maximal inhibition (IC50) with RWPE-1 cells is greater than 50 µM; with DU145 cells, greater than 50 µM; in the assay with LNCaP cells (Homo sapiens, LNCaP, 24 h) it was 27.9 ± 1.72 µM; in the assay with PC-3 cells, greater than 50 µM.
Regarding `c1ccc(CN2CCN(CCc3ccc(COc4ccc5c(c4)OCO5)cc3)CC2)cc1` [Compound 6, 1-(2-(4-((Benzo[d][1,3]dioxol-5-yloxy)methyl)phenyl)ethyl)-4-benzylpiperazine], the IC50 with RWPE-1 cells is 38.8 ± 0.77 µM; with DU145 cells it was 28.9 ± 0.98 µM; in the assay with LNCaP cells (Homo sapiens, LNCaP, 24 h) it was 27.7 ± 4.17 µM; with PC-3 cells, greater than 50 µM.
For the compound `c1ccc(N2CCN(CCc3ccc(COc4ccc5c(c4)OCO5)cc3)CC2)nc1` [Compound 7, 1-(2-(4-((Benzo[d][1,3]dioxol-5-yloxy)methyl)phenyl)ethyl)-4-(pyridin-2-yl)piperazine], the IC50 with RWPE-1 cells was 41.1 ± 0.54 µM; in the assay on DU145 cells it was greater than 50 µM; in the assay with LNCaP cells (Homo sapiens, LNCaP, 24 h), 31.2 ± 0.63 µM; in the assay with PC-3 cells, greater than 50 µM.
Consider `c1cnc(N2CCN(CCc3ccc(COc4ccc5c(c4)OCO5)cc3)CC2)nc1` [Compound 8, 2-(4-(2-(4-((Benzo[d][1,3]dioxol-5-yloxy)methyl)phenyl)ethyl)piperazin-1-yl)pyrimidine], for which the IC50 with RWPE-1 cells was 31.7 ± 3.14 µM; in the assay with DU145 cells, 8.25 ± 0.16 µM; with LNCaP cells (Homo sapiens, LNCaP, 24 h) it was 26.6 ± 0.86 µM; in the assay on PC-3 cells, greater than 50 µM.
In the case of `Cc1ccccc1N1CCN(CCc2ccc(COc3ccc4c(c3)OCO4)cc2)CC1` [Compound 9, 1-(2-(4-((Benzo[d][1,3]dioxol-5-yloxy)methyl)phenyl)ethyl)-4-o-tolylpiperazine], the IC50 with RWPE-1 cells was 31 ± 1.57 µM; in the assay with DU145 cells, greater than 50 µM; with LNCaP cells (Homo sapiens, LNCaP, 24 h), less than 5 µM; in the assay with LNCaP cells it was 3.47 ± 0.36 µM; in the assay on PC-3 cells, greater than 50 µM.
As to `Cc1ccc(N2CCN(CCc3ccc(COc4ccc5c(c4)OCO5)cc3)CC2)cc1` [Compound 10, 1-(2-(4-((Benzo[d][1,3]dioxol-5-yloxy)methyl)phenyl)ethyl)-4-p-tolylpiperazine], the IC50 in the assay with RWPE-1 cells was greater than 50 µM; with DU145 cells, 47.8 ± 2.02 µM; with LNCaP cells (Homo sapiens, LNCaP, 24 h), 31.9 ± 0.89 µM; with PC-3 cells, greater than 50 µM.
`Cc1cccc(N2CCN(CCc3ccc(COc4ccc5c(c4)OCO5)cc3)CC2)c1` [Compound 11, 1-(2-(4-((Benzo[d][1,3]dioxol-5-yloxy)methyl)phenyl)ethyl)-4-m-tolylpiperazine]: the IC50 in the assay with RWPE-1 cells was greater than 50 µM; in the assay on DU145 cells, greater than 50 µM; in the assay with LNCaP cells (Homo sapiens, LNCaP, 24 h), greater than 50 µM; with PC-3 cells, greater than 50 µM.
Regarding `COc1ccccc1N1CCN(CCc2ccc(COc3ccc4c(c3)OCO4)cc2)CC1` [Compound 12, 1-(2-(4-((Benzo[d][1,3]dioxol-5-yloxy)methyl)phenyl)ethyl)-4-(2-methoxyphenyl)piperazine], the IC50 in the assay on RWPE-1 cells was greater than 50 µM; in the assay with DU145 cells, greater than 50 µM; with LNCaP cells (Homo sapiens, LNCaP, 24 h), 30.7 ± 0.83 µM; in the assay with PC-3 cells it was greater than 50 µM.
As for `COc1ccc(N2CCN(CCc3ccc(COc4ccc5c(c4)OCO5)cc3)CC2)cc1` [Compound 13, 1-(2-(4-((Benzo[d][1,3]dioxol-5-yloxy)methyl)phenyl)ethyl)-4-(4-methoxyphenyl)piperazine], the IC50 in the assay with RWPE-1 cells was greater than 50 µM; with DU145 cells, greater than 50 µM; in the assay with LNCaP cells (Homo sapiens, LNCaP, 24 h), 28.3 ± 0.49 µM; in the assay on PC-3 cells, greater than 50 µM.
With `COc1cccc(N2CCN(CCc3ccc(COc4ccc5c(c4)OCO5)cc3)CC2)c1` [Compound 14, 1-(2-(4-((Benzo[d][1,3]dioxol-5-yloxy)methyl)phenyl)ethyl)-4-(3-methoxyphenyl)piperazine], the IC50 in the assay on RWPE-1 cells was 39 ± 0.77 µM; in the assay with DU145 cells, greater than 50 µM; with LNCaP cells (Homo sapiens, LNCaP, 24 h) it was greater than 50 µM; in the assay with PC-3 cells, greater than 50 µM.
Consider `Fc1ccccc1N1CCN(CCc2ccc(COc3ccc4c(c3)OCO4)cc2)CC1` [Compound 15, 1-(2-(4-((Benzo[d][1,3]dioxol-5-yloxy)methyl)phenyl)ethyl)-4-(2-fluorophenyl)piperazine], for which the IC50 with RWPE-1 cells is 41 ± 0.47 µM; with DU145 cells, greater than 50 µM; in the assay with PC-3 cells, greater than 50 µM.
Consider `Fc1ccc(N2CCN(CCc3ccc(COc4ccc5c(c4)OCO5)cc3)CC2)cc1` [Compound 16, 1-(2-(4-((Benzo[d][1,3]dioxol-5-yloxy)methyl)phenyl)ethyl)-4-(4-fluorophenyl)piperazine], for which the IC50 with RWPE-1 cells was greater than 50 µM; in the assay on DU145 cells, greater than 50 µM; with LNCaP cells (Homo sapiens, LNCaP, 24 h) it was 32.5 ± 1.04 µM; in the assay on PC-3 cells, greater than 50 µM.
`Fc1ccc(N2CCN(CCc3ccc(COc4ccc5c(c4)OCO5)cc3)CC2)c(F)c1` [Compound 17, 1-(2-(4-((Benzo[d][1,3]dioxol-5-yloxy)methyl)phenyl)ethyl)-4-(2,4-difluorophenyl)piperazine]: the IC50 with RWPE-1 cells was 23.9 ± 0.75 µM; in the assay on DU145 cells, 26.8 ± 0.92 µM; in the assay with LNCaP cells (Homo sapiens, LNCaP, 24 h) it was 26.8 ± 1 µM; in the assay on PC-3 cells, greater than 50 µM.
On to `N#Cc1ccc(N2CCN(CCc3ccc(COc4ccc5c(c4)OCO5)cc3)CC2)c(F)c1` [Compound 18, 4-(4-(2-(4-((Benzo[d][1,3]dioxol-5-yloxy)methyl)phenyl)ethyl)piperazin-1-yl)-3-fluorobenzonitrile], for which the IC50 in the assay with RWPE-1 cells was greater than 50 µM; in the assay on DU145 cells, greater than 50 µM; with LNCaP cells (Homo sapiens, LNCaP, 24 h) it was 13.1 ± 0.51 µM; in the assay with PC-3 cells, 26.9 ± 1 µM.
Turning to `Clc1ccccc1N1CCN(CCc2ccc(COc3ccc4c(c3)OCO4)cc2)CC1` [Compound 19, 1-(2-(4-((Benzo[d][1,3]dioxol-5-yloxy)methyl)phenyl)ethyl)-4-(2-chlorophenyl)piperazine], the IC50 is 29.9 ± 0.8 µM with RWPE-1 cells; greater than 50 µM in the assay with DU145 cells; 26.6 ± 0.4 µM in the assay with LNCaP cells (Homo sapiens, LNCaP, 24 h); greater than 50 µM in the assay on PC-3 cells.
`Clc1ccc(N2CCN(CCc3ccc(COc4ccc5c(c4)OCO5)cc3)CC2)cc1` [Compound 20, 1-(2-(4-((Benzo[d][1,3]dioxol-5-yloxy)methyl)phenyl)ethyl)-4-(4-chlorophenyl)piperazine]: the IC50 in the assay with RWPE-1 cells was greater than 50 µM; with DU145 cells it was greater than 50 µM; in the assay with LNCaP cells (Homo sapiens, LNCaP, 24 h) it was greater than 50 µM; with PC-3 cells it was greater than 50 µM.
Regarding `Clc1cccc(N2CCN(CCc3ccc(COc4ccc5c(c4)OCO5)cc3)CC2)c1` [Compound 21, 1-(2-(4-((Benzo[d][1,3]dioxol-5-yloxy)methyl)phenyl)ethyl)-4-(3-chlorophenyl)piperazine], the IC50 is greater than 50 µM in the assay on RWPE-1 cells; greater than 50 µM in the assay on DU145 cells; 25.3 ± 1.55 µM in the assay with LNCaP cells (Homo sapiens, LNCaP, 24 h); greater than 50 µM in the assay with PC-3 cells.
Regarding `Clc1cccc(N2CCN(CCc3ccc(COc4ccc5c(c4)OCO5)cc3)CC2)c1Cl` [Compound 22, 1-(2-(4-((Benzo[d][1,3]dioxol-5-yloxy)methyl)phenyl)ethyl)-4-(2,3-dichlorophenyl)piperazine], the IC50 with RWPE-1 cells was greater than 50 µM; in the assay on DU145 cells, greater than 50 µM; in the assay on LNCaP cells (Homo sapiens, LNCaP, 24 h) it was 39.4 ± 0.54 µM; in the assay on PC-3 cells, greater than 50 µM.
For `COc1ccc(Cl)cc1N1CCN(CCc2ccc(COc3ccc4c(c3)OCO4)cc2)CC1` [Compound 23, 1-(2-(4-((Benzo[d][1,3]dioxol-5-yloxy)methyl)phenyl)ethyl)-4-(5-chloro-2-methoxyphenyl)piperazine], the IC50 in the assay on RWPE-1 cells is 35.9 ± 1.25 µM; in the assay on DU145 cells it was greater than 50 µM; in the assay with LNCaP cells (Homo sapiens, LNCaP, 24 h), 33.2 ± 2.69 µM; in the assay with PC-3 cells, greater than 50 µM.
For `Brc1ccc(N2CCN(CCc3ccc(COc4ccc5c(c4)OCO5)cc3)CC2)cc1` [Compound 24, 1-(2-(4-((Benzo[d][1,3]dioxol-5-yloxy)methyl)phenyl)ethyl)-4-(4-bromophenyl)piperazine], the IC50 in the assay with RWPE-1 cells is greater than 50 µM; in the assay on DU145 cells it was greater than 50 µM; in the assay with LNCaP cells (Homo sapiens, LNCaP, 24 h), 19.9 ± 1.01 µM; in the assay on PC-3 cells, greater than 50 µM.
Turning to `FC(F)(F)c1ccccc1N1CCN(CCc2ccc(COc3ccc4c(c3)OCO4)cc2)CC1` [Compound 25, 1-(2-(4-((Benzo[d][1,3]dioxol-5-yloxy)methyl)phenyl)ethyl)-4-(2-(trifluoromethyl)phenyl)piperazine], the IC50 with RWPE-1 cells was 18.9 ± 3.68 µM; in the assay with DU145 cells, greater than 50 µM; in the assay with LNCaP cells (Homo sapiens, LNCaP, 24 h), 32.96 ± 0.21 µM; with PC-3 cells, greater than 50 µM.
For the compound `FC(F)(F)c1ccc(N2CCN(CCc3ccc(COc4ccc5c(c4)OCO5)cc3)CC2)cc1` [Compound 26, 1-(2-(4-((Benzo[d][1,3]dioxol-5-yloxy)methyl)phenyl)ethyl)-4-(4-(trifluoromethyl)phenyl)piperazine], the IC50 in the assay on RWPE-1 cells is greater than 50 µM; in the assay on DU145 cells, greater than 50 µM; in the assay with LNCaP cells (Homo sapiens, LNCaP, 24 h) it was 26.8 ± 1.51 µM; in the assay with PC-3 cells, greater than 50 µM.

The values above are taken from publication PMC6271825, “Synthesis and Cytotoxic Activity Evaluation of Novel Arylpiperazine Derivatives on Human Prostate Cancer Cell Lines” (Molecules, 2014).
